Source: US12509425B2, “Tablet comprising modoflaner as an active component” (VIRBAC, priority 2020, dated 2025)

Test: Bioavailability study: Modoflaner plasma concentration in dogs after oral gel capsule
Assay type: in vivo
Conditions: oral gelatin capsule, same dosage per kg body weight, 5 dogs per group
Method: The highest plasma concentration measured was set to 1 and the other plasma concentrations are given relatively to this highest value.
Ten dogs, divided into two groups comprising five animals each, were orally treated with a gel capsule containing either modification I or IV of Modoflaner at the same dosage of Modoflaner per kg body weight.
For kinetic evaluation, blood was sampled at predetermined time points (0, 0.5, 1, 2, 4, 6, 8, 24, 32, 48, 72 and 144 hours) before and after treatment (n=12 per dog). All samples were deep-frozen immediately after plasma preparation and stored at −18° C. or below until shipment to the analytical laboratory.
The samples were analyzed with regard to their concentration in Modoflaner.
The plasma samples were deproteinized by mixing 100 μL plasma with 900 μL of a mixture of 100 mL of 0.40 g ammonium acetate in 1 L water plus 100 μL formic acid and 600 mL acetonitrile, treatment for 30 s on a vortex mixer and subsequent centrifugation. The quantitative determination was performed by HPLC (Column ZORBAX Eclipse Plus C18 Rapid Resolution HD, 2.1×50 mm, 1.8 μm Agilent Technologies; Isocratic pump: Mobile phase: Solution of methanol/water (7+3, v/v)+10 mMol ammonium formate+0.12 mL/L formic acid Flow rate: 0.5 mL/min; Binary pump: Mobile phase A: water+10 mMol ammonium formate+0.12 mL/L formic acid Mobile phase B: methanol+10 mMol ammonium formate+0.12 mL/L formic acid Flow rate: 0.6 mL/min) with detection by tandem mass spectrometry using a Sciex API 5500 mass spectrometer (negative ionisation mode using the transition from Modoflaner precursor ion at m/z 714 to its product ion at m/z 694). The lower limit of quantitation was 1 μg/L.
For calculation of the mean values, results below the limit of quantitation were set to half the limit of quantitation.

Cmax relative to Cmax of crystalline modification I | Tmax (listed as modification IV) | Tmax | SMILES
about 3 times | 4 h | – | O=C(Nc1cccc(C(=O)Nc2c(I)cc(C(F)(C(F)(F)F)C(F)(F)F)cc2C(F)(F)F)c1F)c1ccc(F)nc1 [6-fluoro-N-(3-(2-iodo-4-(perfluoropropan-2-yl)-6-(trifluoromethyl)phenylcarbamoyl)-2-fluoro-phenyl)-nicotinamide]
– | – | 32 h | O=C(Nc1cccc(C(=O)Nc2c(I)cc(C(F)(C(F)(F)F)C(F)(F)F)cc2C(F)(F)F)c1F)c1ccc(F)nc1 [crystalline modification I of Modoflaner, 6-fluoro-N-(3-(2-iodo-4-(perfluoropropan-2-yl)-6-(trifluoromethyl)phenylcarbamoyl)-2-fluoro-phenyl)-nicotinamide]
